According to paper PMC12030706, “Novel ^177Lu-Labeled [Thz^14]Bombesin(6–14) Derivatives with Low Pancreas Accumulation for Targeting Gastrin-Releasing Peptide Receptor-Expressing Cancer” (Pharmaceuticals, 2025):

Legend:
[1] = Ex vivo biodistribution in PC-3 tumor-bearing mice; conditions: mouse; for tissue uptake at 4 h: 4 h post-injection; for tissue uptake at 24 h: 24 h post-injection; for tissue uptake at 72 h: 72 h post-injection; for tissue uptake at 120 h: 120 h post-injection
Procedure: SPECT/CT imaging experiments were performed using an MILabs (Houten, The Netherlands) U-SPECT-II/CT scanner with a custom-made ultra-high-sensitivity big mouse collimator (2 mm pinhole size) following previously reported procedures. […] Male NOD.Cg-Rag1^tm1Mom Il2rg^tm1Wjl/SzJ (NRG) mice were used in these experiments because of their immunodeficient characteristics and excellent radiation tolerance. Mice were anaesthetized and subcutaneously implanted with 5 × 10^6 PC-3 prostate cancer cells (100 µL; 1:1 PBS/Matrigel) behind the left shoulder. SPECT/CT imaging and biodistribution studies were performed once the tumors reached a diameter of 5–8 mm, typically after approximately 4 weeks of growth.
For ex vivo biodistribution studies, the mice were injected with ~2–6 MBq of the radioligand. […] Blocking study was conducted at 1 h post-injection via co-injection of the radioligand with 100 μg of [D-Phe^6,Leu-NHEt^13,des-Met^14]Bombesin(6–14). Organs/tissues of interested were collected, weighed, and measured using an automatic gamma counter.

[2] = tested on: PC-3 tumor-bearing NRG mouse; test: Longitudinal SPECT/CT imaging in PC-3 tumor-bearing mice; type: in vivo, mice (NRG); conditions: SPECT/CT images
Procedure: The PC-3 tumor-bearing mice were sedated (2.5% isoflurane in O2) and injected with ^177Lu-labeled ligands (15–32 MBq) through a lateral caudal tail vein. […] At each time point, a 5 min CT scan was obtained using 615 μA and 60 kV parameters for localization and attenuation, followed by 2 × 30 min static SPECT scans acquired in list mode with an energy window centered around 208 keV. The MILabs U-SPECT II reconstruction software (version 8.00) was used to reconstruct data, and the images were decay corrected to the time of injection with PMOD v 3.402 (PMOD Technologies GmbH, Fallanden, Switzerland).

[3] = large intestine, Uptake in large intestine
[4] = small intestine, Uptake in small intestine

**Q.** What does the source list for `CC(C)C[C@@H](CN1CSC[C@H]1C(N)=O)NC(=O)[C@H](Cc1cnc[nH]1)NC(=O)CN(C)C(=O)[C@@H](NC(=O)[C@H](C)NC(=O)[C@H](Cc1c[nH]c2ccccc12)NC(=O)[C@H](CCC(N)=O)NC(=O)[C@@H](Cc1ccccc1)NC(=O)CN1CCC(NC(=O)CN2CCN(CC(=O)O)CCN(CC(=O)O)CCN(CC(=O)O)CC2)CC1)C(C)C` [[^177Lu]Lu-TacsBOMB5, metal not drawn]?
**A.** tissue uptake at 1 h ([1]; kidneys, Uptake in kidneys, 1 h post-injection): 3.47 ± 0.29 %ID/g; tissue uptake at 4 h ([1]; kidneys, Uptake in kidneys): 3.1 ± 0.35 %ID/g; tissue uptake at 24 h ([1]; kidneys, Uptake in kidneys): 1.38 ± 0.18 %ID/g; tissue uptake at 72 h ([1]; kidneys, Uptake in kidneys): 0.6 ± 0.07 %ID/g; tissue uptake at 120 h ([1]; kidneys, Uptake in kidneys): 0.39 ± 0.11 %ID/g; tissue uptake at 1 h ([1]; large intestine, 100 ug, Uptake in large intestine, 1 h blocked (co-injected with 100 µg [D-Phe6,Leu-NHEt13,des-Met14]Bombesin(6-14))): 0.13 ± 0.04 %ID/g; tissue uptake at 1 h ([1]; large intestine, Uptake in large intestine, 1 h post-injection): 0.31 ± 0.09 %ID/g; tissue uptake at 4 h [1, 3]: 0.42 ± 0.09 %ID/g; tissue uptake at 24 h [1, 3]: 0.42 ± 0.25 %ID/g; tissue uptake at 1 h ([1]; liver, 100 ug, Uptake in liver, 1 h blocked (co-injected with 100 µg [D-Phe6,Leu-NHEt13,des-Met14]Bombesin(6-14))): 0.29 ± 0.05 %ID/g; tissue uptake at 1 h ([1]; liver, Uptake in liver, 1 h post-injection): 0.67 ± 0.07 %ID/g; tissue uptake at 4 h ([1]; liver, Uptake in liver): 0.54 ± 0.04 %ID/g; tissue uptake at 24 h ([1]; liver, Uptake in liver): 0.29 ± 0.02 %ID/g; tissue uptake at 120 h ([1]; liver, Uptake in liver): 0.16 ± 0.07 %ID/g; tissue uptake at 1 h ([1]; lungs, 100 ug, Uptake in lungs, 1 h blocked (co-injected with 100 µg [D-Phe6,Leu-NHEt13,des-Met14]Bombesin(6-14))): 0.37 ± 0.04 %ID/g; tissue uptake at 1 h ([1]; lungs, Uptake in lungs, 1 h post-injection): 2.2 ± 0.93 %ID/g; tissue uptake at 4 h ([1]; lungs, Uptake in lungs): 1.45 ± 0.34 %ID/g; tissue uptake at 24 h ([1]; lungs, Uptake in lungs): 0.25 ± 0.03 %ID/g; tissue uptake at 72 h ([1]; lungs, Uptake in lungs): 0.13 ± 0.01 %ID/g; tissue uptake at 120 h ([1]; lungs, Uptake in lungs): 0.07 ± 0.03 %ID/g; tissue uptake at 1 h ([1]; muscle, 100 ug, Uptake in muscle, 1 h blocked (co-injected with 100 µg [D-Phe6,Leu-NHEt13,des-Met14]Bombesin(6-14))): 0.13 ± 0.03 %ID/g; tissue uptake at 1 h ([1]; muscle, Uptake in muscle, 1 h post-injection): 0.22 ± 0.01 %ID/g; tissue uptake at 72 h ([1]; muscle, Uptake in muscle): 0.02 %ID/g; tissue uptake at 120 h ([1]; muscle, Uptake in muscle): 0.01 %ID/g; tissue uptake at 1 h ([1]; pancreas, 100 ug, Uptake in pancreas, 1 h blocked (co-injected with 100 µg [D-Phe6,Leu-NHEt13,des-Met14]Bombesin(6-14))): 0.59 ± 0.11 %ID/g; tissue uptake at 1 h ([1]; pancreas, Uptake in pancreas, 1 h post-injection): 1.08 ± 0.22 %ID/g; tissue uptake at 4 h ([1]; pancreas, Uptake in pancreas): 0.21 ± 0.01 %ID/g; tissue uptake at 72 h ([1]; pancreas, Uptake in pancreas): 0.04 ± 0.01 %ID/g; tissue uptake at 120 h ([1]; pancreas, Uptake in pancreas): 0.02 %ID/g; tissue uptake at 1 h ([1]; small intestine, 100 ug, Uptake in small intestine, 1 h blocked (co-injected with 100 µg [D-Phe6,Leu-NHEt13,des-Met14]Bombesin(6-14))): 0.26 ± 0.04 %ID/g; tissue uptake at 1 h ([1]; small intestine, Uptake in small intestine, 1 h post-injection): 0.6 ± 0.16 %ID/g; tissue uptake at 4 h [1, 4]: 0.19 ± 0.05 %ID/g; tissue uptake at 24 h [1, 4]: 0.09 ± 0.03 %ID/g; tissue uptake at 120 h [1, 4]: 0.02 %ID/g; tissue uptake at 1 h ([1]; spleen, 100 ug, Uptake in spleen, 1 h blocked (co-injected with 100 µg [D-Phe6,Leu-NHEt13,des-Met14]Bombesin(6-14))): 0.15 ± 0.02 %ID/g; tissue uptake at 1 h ([1]; spleen, Uptake in spleen, 1 h post-injection): 0.31 ± 0.03 %ID/g; tissue uptake at 24 h ([1]; spleen, Uptake in spleen): 0.16 ± 0.03 %ID/g; tissue uptake at 72 h ([1]; spleen, Uptake in spleen): 0.18 ± 0.05 %ID/g; tissue uptake at 120 h ([1]; spleen, Uptake in spleen): 0.14 ± 0.06 %ID/g; tissue uptake at 1 h ([1]; stomach, 100 ug, Uptake in stomach, 1 h blocked (co-injected with 100 µg [D-Phe6,Leu-NHEt13,des-Met14]Bombesin(6-14))): 0.06 ± 0.01 %ID/g; tissue uptake at 24 h ([1]; stomach, Uptake in stomach): 0.27 ± 0.16 %ID/g; tissue uptake at 120 h ([1]; stomach, Uptake in stomach): 0.02 ± 0.02 %ID/g; tissue uptake at 1 h ([1]; testes, 100 ug, Uptake in testes, 1 h blocked (co-injected with 100 µg [D-Phe6,Leu-NHEt13,des-Met14]Bombesin(6-14))): 0.18 ± 0.02 %ID/g; tissue uptake at 1 h ([1]; testes, Uptake in testes, 1 h post-injection): 0.45 ± 0.11 %ID/g; tissue uptake at 24 h ([1]; testes, Uptake in testes): 0.12 ± 0.02 %ID/g; excretion pathway [2]: excreted mainly via the renal pathway
